Experimental data published in ChEMBL document CHEMBL1147238, “Komodoquinone A, a novel neuritogenic anthracycline, from marine Streptomyces sp. KS3” (J Nat Prod, 2003).
Activity calls are given as the source filed them. The calls are words filed in the database; no cut-off is given here.

Tests used:
[1] = system: N2a; assay: Neuritogenic activity in mouse Neuro2a cells assessed as morphological changes at 1 ug/mL after 24 or 48 hrs; format: functional, cell-based
[2] = system: N2a; assay: Neuritogenic activity in mouse Neuro2a cells assessed as morphological changes at 3 ug/mL after 24 or 48 hrs; format: functional, cell-based

`C[C@@H]1O[C@@H](Oc2cccc3c2C(=O)c2c(O)c4c(c(O)c2C3=O)C[C@](C)(O)C[C@@H]4O)[C@@H](O)[C@H](N(C)C)[C@@H]1O` was tested, and the Activity [1] was “Active”.
For `COc1cccc2c1C(=O)c1c(O)c3c(c(O)c1C2=O)C[C@@](O)(C(=O)CO)C[C@@H]3O[C@H]1C[C@H](N)[C@H](O)[C@H](C)O1`, the Activity [2] was “inactive”.
